Measured values as given in patent US20090270407A1, “FUNGICIDAL ISOXAZOLIDINES” (E. I. DU PONT DE NEMOURS AND COMPANY, priority 2008, published 2009).
Marks after values point to notes of the source that are not given here.

What was measured:
Conditions in all cases: 100 = 100 % disease control, 0 = no disease control relative to controls
[1] = system: Puccinia recondita f. sp. tritici; assay: Test B: wheat leaf rust, preventive spray on wheat seedlings, visual disease rating
[2] = system: Septoria tritici; assay: Test D: wheat leaf blotch, preventive spray on wheat seedlings, visual disease rating; type: in vivo
Description: A dash (−) indicates no test results.

[3] = system: Botrytis cinerea; assay: Test E: tomato Botrytis, preventive spray on tomato seedlings, visual disease rating
[4] = system: Erysiphe graminis f. sp. tritici; assay: Test A: wheat powdery mildew, preventive spray on wheat seedlings, visual disease rating
[5] = system: Alternaria solani; assay: Test F: tomato early blight, preventive spray on tomato seedlings, visual disease rating
Description: General protocol for preparing test suspensions for Tests A-I: The test compounds were first dissolved in acetone in an amount equal to 3% of the final volume and then suspended at the desired concentration (in ppm) in acetone and purified water (50/50 mix) containing 250 ppm of the surfactant Trem® 014 (polyhydric alcohol esters). The resulting test suspensions were then used in Tests A-I. Spraying a 200 ppm test suspension to the point of run-off on the test plants was the equivalent of a rate of 500 g/ha. (An asterisk “*” next to the rating value indicates a 40 ppm test suspension.)
The test suspension was sprayed to the point of run-off on tomato seedlings. The following day the seedlings were inoculated with a spore suspension of Alternaria solani (the causal agent of tomato early blight) and incubated in a saturated atmosphere at 27° C. for 48 h, and then moved to a growth chamber at 20° C. for 5 days, after which time visual disease ratings were made.
(§1) A dash (−) indicates no test results. All results are for 200 ppm except where followed by “*” which indicates 40 ppm.

[6] = system: Septoria nodorum; assay: Test C: wheat glume blotch, preventive spray on wheat seedlings, visual disease rating
Description: (An asterisk “*” next to the rating value indicates a 40 ppm test suspension.)
The test suspension was sprayed to the point of run-off on wheat seedlings. The following day the seedlings were inoculated with a spore suspension of Septoria nodorum (the causal agent of wheat glume blotch) and incubated in a saturated atmosphere at 20° C. for 48 h, and then moved to a growth chamber at 20° C. for 7 days, after which time visual disease ratings were made.
as §1

Row | SMILES | Test B disease control rating ([1]; 40 ppm (marked *)) | Test D disease control rating ([2]; 40 ppm (marked *)) | Test E disease control rating ([3]; 40 ppm (marked *)) | Test A disease control rating ([4]; 40 ppm (marked *)) | Test F disease control rating ([5]; 40 ppm (marked *)) | Test C disease control rating ([6]; 40 ppm (marked *)) | Test B disease control rating ([1]; 200 ppm) [%] | Test D disease control rating ([2]; 200 ppm) [%] | Test E disease control rating ([3]; 200 ppm) [%] | Test A disease control rating ([4]; 200 ppm) [%] | Test F disease control rating ([5]; 200 ppm) [%] | Test C disease control rating ([6]; 200 ppm) [%]
1 | CN1OC(C)(c2cccnc2)CC1c1ccc(-n2cc(I)cn2)cc1 (stereo not drawn) [Compound 57] | 0* % | 57* % | 0* % | 0* % | 0* % | 0* % |  |  |  |  |  | 
2 | CN1OC(C)(c2cccnc2)CC1c1ccc(-n2nc(C(F)(F)F)cc2C(F)(F)F)cc1 (stereo not drawn) [Compound 58] | 0* % | 91* % | 0* % | 80* % | 8* % | 0* % |  |  |  |  |  | 
3 | CN1OC(C)(c2cccnc2)CC1c1ccc(-n2nc(C(F)(F)F)cc2C(F)(F)F)cc1 (stereo not drawn) [Compound 59] | 0* % | 2* % | 0* % | 52* % | 0* % | 0* % |  |  |  |  |  | 
4 | CN1OC(C)(c2cccnc2)CC1c1ccc(-c2ccncc2)cc1 (stereo not drawn) [Compound 60] | 0* % | 3* % | 29* % | 0* % | 0* % | 0* % |  |  |  |  |  | 
5 | CN1OC(C)(c2cccnc2)CC1c1ccc(-c2ccncc2)cc1 (stereo not drawn) [Compound 61] | 0* % | 5* % | 0* % | 0* % | 0* % | 0* % |  |  |  |  |  | 
6 | CN1OC(C)(c2cccnc2)CC1c1cccc(Br)c1 (stereo not drawn) [Compound 64] |  |  |  |  |  |  | 0 | 45 | 0 | 64 | 0 | 0
7 | CN1OC(C)(c2cccnc2)CC1c1ccccc1Br (stereo not drawn) [Compound 65] |  |  |  |  |  |  | 0 | 5 | 0 | 0 | 0 | 0
8 | CN1OC(C)(c2cccnc2)CC1c1ccccc1Br (stereo not drawn) [Compound 66] |  |  |  |  |  |  | 0 | 5 | 0 | 0 | 0 | 0
9 | CN1OC(C)(c2cccnc2)CC1c1cccc(Br)c1 (stereo not drawn) [Compound 67] |  |  |  |  |  |  | 0 | 8 | 34 | 47 | 0 | 0
10 | Cc1cnn(-c2ccc(C3CC(C)(c4cccnc4)ON3C)cc2)c1 (stereo not drawn) [Compound 69] | 0* % | 12* % | 87* % | 0* % | 99* % | 97* % |  |  |  |  |  | 
11 | CN1OC(C)(c2cccnc2)CC1c1ccc(-n2nc(C(F)(F)F)cc2-c2ccccn2)cc1 (stereo not drawn) [Compound 70] | 26* % | 54* % | 0* % | 0* % | 72* % | 0* % |  |  |  |  |  | 
12 | CN1OC(C)(c2cccnc2)CC1c1ccc(-n2nc(C(F)(F)F)cc2-c2ccccn2)cc1 (stereo not drawn) [Compound 71] | 28* % | 10* % | 0* % | 0* % | 12* % | 0* % |  |  |  |  |  | 
13 | CN1OC(c2cccnc2)CC1c1ccc(-n2ccc(C(F)(F)F)n2)cc1 (stereo not drawn) [Compound 72] | 100* % | 93* % | 96* % | 99* % | 94* % | 100* % |  |  |  |  |  | 
14 | CN1OC(C)(c2cccnc2)CC1c1ccc(-n2nc(-c3ccccn3)cc2C(F)(F)F)cc1 (stereo not drawn) [Compound 74] | 22* % | 2* % | 0* % | 0* % | 0* % | 0* % |  |  |  |  |  | 
15 | CN1OC(C)(c2cccnc2)CC1c1ccc(-n2nc(-c3ccccn3)cc2C(F)(F)F)cc1 (stereo not drawn) [Compound 75] | 22* % | 19* % | 0* % | 0* % | 0* % | 0* % |  |  |  |  |  | 
16 | CN1OC(C)(c2cccnc2)CC1c1cccc(Cl)c1 (stereo not drawn) [Compound 76] |  |  |  |  |  |  | 0 | 34 | 85 | 84 | 9 | 0

Row | SMILES | Test B disease control rating ([1]; 40 ppm (marked *)) | Test D disease control rating ([2]; 40 ppm (marked *)) | Test E disease control rating ([3]; 40 ppm (marked *)) | Test A disease control rating ([4]; 40 ppm (marked *)) | Test F disease control rating ([5]; 40 ppm (marked *)) | Test C disease control rating ([6]; 40 ppm (marked *)) | Test B disease control rating ([1]; 200 ppm) [%] | Test D disease control rating ([2]; 200 ppm) [%] | Test E disease control rating ([3]; 200 ppm) [%] | Test A disease control rating ([4]; 200 ppm) [%] | Test F disease control rating ([5]; 200 ppm) [%] | Test C disease control rating ([6]; 200 ppm) [%]
17 | CN1OC(C)(c2cccnc2)CC1c1cccc(Cl)c1 (stereo not drawn) [Compound 77] |  |  |  |  |  |  | 0 | 62 | 0 | 0 | 0 | 0
18 | CN1OC(C)(c2cccnc2)CC1c1ccccc1F (stereo not drawn) [Compound 78] |  |  |  |  |  |  | 0 | 16 | 0 | 0 | 0 | 0
19 | CN1OC(C)(c2cccnc2)CC1c1ccccc1F (stereo not drawn) [Compound 79] |  |  |  |  |  |  | 27 | 7 | 0 | 0 | 0 | 22
20 | CN1OC(C)(c2cccnc2)CC1c1ccc(F)c(F)c1 (stereo not drawn) [Compound 81] |  |  |  |  |  |  | 0 | 15 | 78 | 56 | 0 | 0
21 | CN1OC(C)(c2cccnc2)CC1c1ccc(F)c(F)c1 (stereo not drawn) [Compound 82] |  |  |  |  |  |  | 18 | 40 | 0 | 0 | 0 | 0
22 | CN1OC(C)(c2cccnc2)CC1c1ccc(Br)cc1Br (stereo not drawn) [Compound 83] |  |  |  |  |  |  | 0 | 91 | 82 | 98 | 56 | 81
23 | CN1OC(C)(c2cccnc2)CC1c1ccc(Br)cc1Br (stereo not drawn) [Compound 84] |  |  |  |  |  |  | 27 | 52 | 43 | 94 | 0 | 60
24 | COc1cc(Br)ccc1C1CC(C)(c2cccnc2)ON1C (stereo not drawn) [Compound 85] |  |  |  |  |  |  | 0 | 89 | 0 | 90 | 92 | 64
25 | COc1cc(Br)ccc1C1CC(C)(c2cccnc2)ON1C (stereo not drawn) [Compound 86] |  |  |  |  |  |  | 9 | 76 | 0 | 91 | 0 | 0
26 | CN1OC(C)(c2cccnc2)CC1c1cccc2c1OC(F)(F)O2 (stereo not drawn) [Compound 91] |  |  |  |  |  |  | 0 | 0 | 0 | 0 | 0 | 0
27 | CN1OC(C)(c2cccnc2)CC1c1ccccc1Cl (stereo not drawn) [Compound 92] |  |  |  |  |  |  | 0 | 22 | 0 | 0 | 0 | 0
28 | CN1OC(C)(c2cccnc2)CC1c1ccccc1Cl (stereo not drawn) [Compound 93] |  |  |  |  |  |  | 0 | 3 | 0 | 0 | 0 | 0
29 | CN1OC(C)(c2cccnc2)CC1c1cccc(F)c1 (stereo not drawn) [Compound 94] |  |  |  |  |  |  | 0 | 4 | 0 | 84 | 0 | 0
30 | CN1OC(C)(c2cccnc2)CC1c1ccc(Br)cc1F (stereo not drawn) [Compound 96] |  |  |  |  |  |  | 0 | 77 | 0 | 48 | 0 | 78
31 | CN1OC(C)(c2cccnc2)CC1c1ccc(Br)c(F)c1 (stereo not drawn) [Compound 101] |  |  |  |  |  |  | 0 | 68 | 100 | 99 | 99 | 86
